# Source: US4130645A (priority 1978, dated 1978)
# Assays:
# [1] = test system: Pyricularia oryzae Carvara; details: in vivo
# rice = details: 1000 ppm
# [2] = test system: Venturia inaequalis (Cke.) Wint.; assay: whole plant or invertebrate; format: in vivo; details: in vivo
# [3] = test system: Podosphaera leucotricha (E&E) Salm.; assay: whole plant or invertebrate; format: in vivo; details: in vivo
# crops = details: in vivo; cited from earlier work
# groundsel and chickweed = details: in vivo; cited from earlier work
# [4] = Thermal decomposition point (Differential Thermal Analyzer); format: physicochemical; details: 20° C./min, onset method; listed as Parent Compound
# Description: By the procedure of Examples 2 and 5 the following novel salts of 2,3,5,6-tetrachloro-N-nitroaniline are prepared as listed in Table II below. The melting points (uncorrected) of said salts are determined on a Thomas Hoover Capillary Melting Point Apparatus; while the thermal decomposition points of said salts are determined on a Dupont 900 Differential Thermal Analyzer. […] Decompositions are recorded by an exothermic response and the temperatures given in Table II below are assessed by the "onset method".
# [5] = test system: Puccinia recondita var. tritici; assay: Protectant control of leaf rust of wheat; format: in vivo
# Description: (§1) Individual pots of approximately 20 to 25 wheat (Triticum vulgare, cv. Cheyenne) plants each, grown under greenhouse conditions, approximately 7 to 8 days old and 10.2 to 12.7 cm. tall are used as test plants, a minimum of three such pots per unit of test.
# (§2) The required amount of test compound is dissolved in 10 ml. of a stock solution consisting of 1995 ml. acetone, 4 ml. sorbitan trioleate and 1 ml. polyoxyethylene (20) sorbitan monooleate and diluted to a volume of 100 ml. by addition of 90 ml. deionized water.
# (§3) Test plants, three pots per unit of test, are mounted on a compound turntable and sprayed to incipient run-off with the test solution applied at 2.81 kg/cm^2 pressure for 60 seconds using a solid conte T-Jet 8801E spray nozzle. By this spray procedure the delivery rate is equivalent to approximately 467.7 l/ha.
# (§4) Treated plants are allowed to air dry for 5 to 6 hours and then inoculated by uniformly dusting with urediospores of leaf rust of wheat (Puccinia recondita var. tritici) at a rate of approximately 2 × 10^5 urediospores per replicate, using urediospores directly from diseased plants. Inoculated plants are immediately placed in an incubation chamber maintained at 21° C. and 95% + RH. After 24 hours plants are removed to the greenhouse and maintained under greenhouse conditions of 21° to 29.4° C. and 50 to 75% RH for 5 to 8 days until signs of orange pustules visible to the naked eye appear on the inoculated but otherwise untreated controls.
# Effectiveness of the compound, as applied, is expressed as Percent Control calculated as: [formula]
# Average number of pustules on plants of any given test unit is determined by randomly dividing all plants in each of the three replicates (one pot per replicate) into quadrants, counting the actual number of pustules on all plants within a quadrant in each of the three replicates, multiplying by four and averaging the total number of pustules thus obtained as the average number of pustules per replicate.
# wheat = assay: Plant injury to wheat in leaf rust test; format: in vivo, Triticum vulgare, cv. Cheyenne
# Description: as §1, §2, §3, §4
smiles,measurement,setting,value
O=[N+]([O-])Nc1c(Cl)c(Cl)cc(Cl)c1Cl [drawing 58],Rice Blast Percent Disease Control,[1],83%
same,phytotoxicity,rice,M/Sv
Cc1cccc(N[N+](=O)[O-])c1C [drawing 55],Rice Blast Percent Disease Control,[1],81%
O=[N+]([O-])Nc1c(Cl)c(Cl)cc(Cl)c1Cl [drawing 60],Rice Blast Percent Disease Control,[1],83%
"Cc1cccc(N[N+](=O)[O-])c1C [2,3-dimethylphenylnitramine]",activity against the rice blast pathogen,[1],considerable activity
O=[N+]([O-])Nc1c(Cl)c(Cl)cc(Cl)c1Cl [drawing 61],Rice Blast Percent Disease Control,[1],83%
"O=[N+]([O-])Nc1c(Br)cc(C(F)(F)F)cc1Br [2,6-dibromo-4-trifluoromethylphenylnitramine]",activity against apple scab,[2],active
same,activity against apple powdery mildew,[3],active
"CC(=O)N(c1c(Cl)c(Cl)cc(Cl)c1Cl)[N+](=O)[O-] [N-acetyl derivative of 2,3,5,6-tetrachlorophenylnitramine]",activity against the rice blast pathogen,[1],considerable activity
same,activity against apple powdery mildew,[3],active
O=C(O)C1(O)c2ccccc2-c2ccc(Cl)cc21 (stereo not shown) [2-chloro-9-fluorenol-9-carboxylic acid],selectivity,crops,very little selectivity
same,susceptibility of most crops examined,crops,susceptible
same,weed control,groundsel and chickweed,weed control is achieved
"O=[N+]([O-])Nc1c(Cl)c(Cl)cc(Cl)c1Cl [2,3,5,6-Tetrachloro-N-nitroaniline, 2,3,5,6-tetrachloro-N-nitroaniline]",Thermal Decomposition Point,[4],150 °C
same,% Control (Ave),[5]; 50 ppm,35%
same,No. of Infection Loci/Replicate,"[5]; 50 ppm, Rep. 1",186
same,No. of Infection Loci/Replicate,"[5]; 50 ppm, Rep. 2",173
same,No. of Infection Loci/Replicate,"[5]; 50 ppm, Rep. 3",199
same,% Control (Ave),[5]; 100 ppm,58%
same,No. of Infection Loci/Replicate,"[5]; 100 ppm, Rep. 1",124
same,No. of Infection Loci/Replicate,"[5]; 100 ppm, Rep. 2",119
same,No. of Infection Loci/Replicate,"[5]; 100 ppm, Rep. 3",116
same,% Control (Ave),[5]; 200 ppm,69%
same,No. of Infection Loci/Replicate,"[5]; 200 ppm, Rep. 1",81
same,No. of Infection Loci/Replicate,"[5]; 200 ppm, Rep. 2",96
same,No. of Infection Loci/Replicate,"[5]; 200 ppm, Rep. 3",86
same,Plant Injury (Ave),wheat; 50 ppm,0
same,Plant Injury (Ave),wheat; 100 ppm,0
same,Plant Injury (Ave),wheat; 200 ppm,0
O=[N+]([O-])Nc1ccc(C(F)(F)F)cc1 [4-trifluoromethylphenylnitramine],activity against the rice blast pathogen,[1],considerable activity
CC(=O)N(c1c(Cl)c(Cl)cc(Cl)c1Cl)[N+](=O)[O-] [drawing 57],Rice Blast Percent Disease Control,[1],100%
O=[N+]([O-])Nc1c(Cl)c(Cl)cc(Cl)c1Cl [drawing 59],Rice Blast Percent Disease Control,[1],83%
same,phytotoxicity,rice,M/Sv
O=[N+]([O-])Nc1c(Cl)c(Cl)cc(Cl)c1Cl [drawing 62],Rice Blast Percent Disease Control,[1],69%
